As usually defined, the IC50 is the concentration at which inhibition is half-maximal.

Sequence of GST-Xa-hAAK1 (Q2M2I8 whole entry): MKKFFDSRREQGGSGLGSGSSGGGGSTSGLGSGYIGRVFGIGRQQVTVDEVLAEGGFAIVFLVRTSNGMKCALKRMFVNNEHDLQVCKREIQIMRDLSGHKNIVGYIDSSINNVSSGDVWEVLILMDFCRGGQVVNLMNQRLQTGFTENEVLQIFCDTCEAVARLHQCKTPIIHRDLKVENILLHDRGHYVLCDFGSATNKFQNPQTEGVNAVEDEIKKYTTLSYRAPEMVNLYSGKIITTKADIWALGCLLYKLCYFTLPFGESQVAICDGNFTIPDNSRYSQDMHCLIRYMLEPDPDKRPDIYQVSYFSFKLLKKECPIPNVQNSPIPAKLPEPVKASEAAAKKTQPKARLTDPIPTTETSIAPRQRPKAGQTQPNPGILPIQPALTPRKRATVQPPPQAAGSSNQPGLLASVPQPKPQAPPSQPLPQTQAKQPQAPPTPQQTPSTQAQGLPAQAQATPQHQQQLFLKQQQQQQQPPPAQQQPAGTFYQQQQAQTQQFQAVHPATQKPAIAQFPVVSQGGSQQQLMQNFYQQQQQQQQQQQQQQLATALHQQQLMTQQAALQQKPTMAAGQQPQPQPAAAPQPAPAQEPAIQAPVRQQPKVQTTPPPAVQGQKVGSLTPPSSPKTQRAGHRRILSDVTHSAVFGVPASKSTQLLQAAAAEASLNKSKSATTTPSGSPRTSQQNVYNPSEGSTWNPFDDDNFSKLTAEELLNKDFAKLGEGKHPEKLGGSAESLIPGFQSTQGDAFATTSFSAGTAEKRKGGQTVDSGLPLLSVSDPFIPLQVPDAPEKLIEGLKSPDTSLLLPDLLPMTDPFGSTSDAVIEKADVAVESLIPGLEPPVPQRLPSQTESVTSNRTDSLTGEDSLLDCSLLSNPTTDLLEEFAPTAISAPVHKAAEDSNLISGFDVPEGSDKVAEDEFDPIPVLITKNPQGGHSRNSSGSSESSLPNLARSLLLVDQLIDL

In the assay the target is GST-Xa-hAAK1 (Homo sapiens (Human), UniProt Q2M2I8). The experiment in a line: AAK1 Kinase Assay. The class given is biochemical. The conditions noted are these: bacterially expressed GST-Xa-hAAK1 3.5 nM; ATP 22 μM; fluoresceinated peptide substrate 1.5 μM; 3 hours at room temperature. As to the method:
The assays were performed in U-bottom 384-well plates. […] The reactions were initiated by the combination of bacterially expressed, GST-Xa-hAAK1 with substrates and test compounds. The reactions were incubated at room temperature for 3 hours and terminated by adding 60 μl of 35 mM EDTA buffer to each sample. The reactions were analyzed on the Caliper LabChip 3000 (Caliper, Hopkinton, Mass.) by electrophoretic separation of the fluorescent substrate and phosphorylated product. […] Compounds were dissolved at 10 mM in dimethylsulfoxide (DMSO) and evaluated at eleven concentrations. IC50 values were derived by non-linear regression analysis.
In the case of `CC(C)C[C@H](N)COc1ccc2c(c1)C(C)Oc1cnccc1-2` (stereo partly drawn) [Example 30, (2S)-4-methyl-1-((6-methyl-6H-isochromeno[3,4-c]pyridin-8-yl)oxy)pentan-2-amine], the IC50 is 17 nM.
Turning to `COC(=O)Nc1nc(Cl)c2c(c1Cl)-c1ccc(OC[C@@](C)(N)CC(C)C)c(Cl)c1CO2` [Example 63, (S)-methyl (8-((2-amino-2,4-dimethylpentyl)oxy)-1,4,7-trichloro-6H-isochromeno[3,4-c]pyridin-2-yl)carbamate], the IC50 is 15 nM.
For `COC(=O)Nc1cc2c(cn1)OCc1c-2ccc(OC[C@@](C)(N)CC(C)C)c1F` [Example 45, (S)-methyl (8-((2-amino-2,4-dimethylpentyl)oxy)-7-fluoro-6H-isochromeno[3,4-c]pyridin-2-yl)carbamate], the IC50 stood at 0.91 nM.
Under `CC(=O)Nc1cc2c(cn1)OCc1cc(OC[C@@](C)(N)CC(C)C)ccc1-2` [Example 37, (S)—N-(8-((2-amino-2,4-dimethylpentyl)oxy)-6H-isochromeno[3,4-c]pyridin-2-yl)acetamide] stands 2.4 nM.
Take `Cc1cc2c(cc1OC[C@@H](N)CC(C)C)COc1cnccc1-2` [Example 32, (S)-4-methyl-1-((9-methyl-6H-isochromeno[3,4-c]pyridin-8-yl)oxy)pentan-2-amine]: the IC50 turned out to be 3.2 nM.
Consider `Cc1cc2c(cn1)OCc1cc(OC[C@@](C)(N)CC(C)C)ccc1-2` [Example 51, (S)-2,4-dimethyl-1-((2-methyl-6H-isochromeno[3,4-c]pyridin-8-yl)oxy)pentan-2-amine], for which the IC50 stood at 121 nM.
Regarding `CC(C)C[C@](C)(N)COc1ccc2c(c1)COc1c-2ccnc1Cl` [Example 52, (S)-1-((4-chloro-6H-isochromeno[3,4-c]pyridin-8-yl)oxy)-2,4-dimethylpentan-2-amine], the IC50 was 2.2 nM.
Under `CC(C)C[C@](C)(N)COc1ccc2c(c1)COc1c-2ccnc1N` [Example 60, (S)-8-((2-amino-2,4-dimethylpentyl)oxy)-6H-isochromeno[3,4-c]pyridin-4-amine] stands 0.74 nM.
Under `CC(C)C[C@H](N)COc1ccc2c(c1)COc1cnccc1-2` [Example 29, (S)-1-((6H-isochromeno[3,4-c]pyridin-8-yl)oxy)-4-methylpentan-2-amine] stands 13 nM.
Under `CC(C)C[C@H](N)COc1ccc2c(c1)C(C)(C)Oc1cnccc1-2` [Example 31, (S)-1-((6,6-dimethyl-6H-isochromeno[3,4-c]pyridin-8-yl)oxy)-4-methylpentan-2-amine] stands 235 nM; under `CCn1c(=O)c2cc(OC[C@@](C)(N)CC(C)C)c(Cl)cc2c2ccnc(C)c21` [Example 16, (S)-8-((2-amino-2,4-dimethylpentyl)oxy)-9-chloro-5-ethyl-4-methylbenzo[c][1,7]naphthyridin-6(5H)-one], 24 nM; under `Cc1cc2c(cc1OC[C@@](C)(N)CC(C)C)c(=O)n(C)c1c(C)nccc21` [Example 26, (S)-8-((2-amino-2,4-dimethylpentyl)oxy)-4,5,9-trimethylbenzo[c][1,7]naphthyridin-6(5H)-one], 5.4 nM.
Take `Cc1cc2c(cc1OC[C@@H](N)CC(C)C)c(=O)n(C)c1c(C)nccc21` [Example 4, (S)-8-((2-amino-4-methylpentyl)oxy)-4,5,9-trimethylbenzo[c][1,7]naphthyridin-6(5H)-one]: the concentration for half-maximal inhibition (IC50) came to 14 nM.
Under `COC(=O)Nc1cc2c(cn1)OCc1c-2ccc(OC[C@@](C)(N)CC(C)C)c1Cl` [Example 62, (S)-methyl (8-((2-amino-2,4-dimethylpentyl)oxy)-7-chloro-6H-isochromeno[3,4-c]pyridin-2-yl)carbamate] stands 0.81 nM.
Under `CC(C)C[C@@](C)(N)COc1ccc2c(c1)COc1cnc(NCC(F)(F)F)cc1-2` [Example 44, (R)-8-((2-amino-2,4-dimethylpentyl)oxy)-N-(2,2,2-trifluoroethyl)-6H-isochromeno[3,4-c]pyridin-2-amine] stands 181 nM; under `CC(C)C[C@H](N)COc1ccc2c(c1)c(=O)[nH]c1cnccc12` [Example 1, (S)-8-((2-amino-4-methylpentyl)oxy)benzo[c][1,7]naphthyridin-6(5H)-one], 9.5 nM; under `Cc1nccc2c1OCc1cc(OC[C@@](C)(N)CC(C)C)ccc1-2` [Example 50, (S)-2,4-dimethyl-1-((4-methyl-6H-isochromeno[3,4-c]pyridin-8-yl)oxy)pentan-2-amine], 11 nM.
For `Cc1nccc2c3ccc(OC[C@@](C)(N)CC(C)C)cc3c(=O)n(C)c12` [Example 10, (S)-8-((2-amino-2,4-dimethylpentyl)oxy)-4,5-dimethylbenzo[c][1,7]naphthyridin-6(5H)-one], the concentration for half-maximal inhibition (IC50) was 35 nM.
Under `CC(C)C[C@](C)(N)COc1ccc2c(c1)COc1cnc(NC(=O)OC(C)C)cc1-2` [Example 54, (S)-isopropyl (8-((2-amino-2,4-dimethylpentyl)oxy)-6H-isochromeno[3,4-c]pyridin-2-yl)carbamate] stands 2.1 nM.
Under `COC(=O)Nc1nccc2c1OCc1cc(OC[C@@](C)(N)CC(C)C)ccc1-2` [Example 64, (S)-methyl (8-((2-amino-2,4-dimethylpentyl)oxy)-6H-isochromeno[3,4-c]pyridin-4-yl)carbamate] stands 7.8 nM; under `Cc1nccc2c3cc(C#N)c(OC[C@@](C)(N)CC(C)C)cc3c(=O)n(C3CC3)c12` [Example 24, (S)-8-((2-amino-2,4-dimethylpentyl)oxy)-5-cyclopropyl-4-methyl-6-oxo-5,6-dihydrobenzo[c][1,7]naphthyridine-9-carbonitrile], 69 nM; under `Cc1nccc2c3ccc(OC[C@@](C)(N)CC(C)C)cc3c(=O)n(CCO)c12` [Example 21, (S)-8-((2-amino-2,4-dimethylpentyl)oxy)-5-(2-hydroxyethyl)-4-methylbenzo[c][1,7]naphthyridin-6(5H)-one], 1130 nM.
Regarding `COC(=O)Nc1cc2c(cn1)OCc1cc(OC[C@@](C)(N)CC(C)C)c(F)cc1-2` [Example 49, (S)-methyl (8-((2-amino-2,4-dimethylpentyl)oxy)-9-fluoro-6H-isochromeno[3,4-c]pyridin-2-yl)carbamate], the IC50 came to 5.4 nM.
Under `Cc1cc2c3ccc(OC[C@@](C)(N)CC(C)C)cc3c(=O)n(C)c2cn1` [Example 14, (S)-8-((2-amino-2,4-dimethylpentyl)oxy)-2,5-dimethylbenzo[c][1,7]naphthyridin-6(5H)-one] stands 8.1 nM; under `CC(=O)Nc1cc2c(cn1)OCc1cc(OCC(C)(N)CC(C)C)ccc1-2` (stereo not drawn) [Example 36, N-(8-((2-amino-2,4-dimethylpentyl)oxy)-6H-isochromeno[3,4-c]pyridin-2-yl)acetamide], 2.6 nM; under `CC(C)C[C@](C)(N)COc1ccc2c(c1Cl)COc1cnc(N)cc1-2` [Example 61, (S)-8-((2-amino-2,4-dimethylpentyl)oxy)-7-chloro-6H-isochromeno[3,4-c]pyridin-2-amine], 0.41 nM.
Under `CCOC(=O)Nc1ncc2c(c1Cl)-c1ccc(OC[C@@](C)(N)CC(C)C)cc1CO2` [Example 47, (S)-ethyl (8-((2-amino-2,4-dimethylpentyl)oxy)-1-chloro-6H-isochromeno[3,4-c]pyridin-2-yl)carbamate] stands 26 nM.

Values taken from US10174044B2, “Fused pyridines as kinase inhibitors” (BRISTOL-MYERS SQUIBB COMPANY, priority 2015, dated 2019).
